Reference: patent publication US20250295656A1, “COMBINATION OF LURBINECTEDIN AND IMMUNE CHECKPOINT INHIBITORS” (priority 2020, published 2025)

Test system: MCA205 tumours
Assay: Established MCA205 tumours in immunocompetent mice
Type: in vivo, immunocompetent C57BL/6 mice
Conditions: immunocompetent C57BL/6, 0.18 mg/kg i.v. day 1, 7 and 14
Method: Live MCA205 cells were injected subcutaneously (s.c.) into immunocompetent C57BL/6 mice or immunodeficient nu/nu mice as depicted in the scheme in (a) When tumours became palpable, mice were intravenously (i.v.) injected with […] lurbinectedin (on day 1, 7 and 14). Tumour growth was assessed regularly for the following 30 days. Data is depicted as tumour growth curves (b,d) and overall survival plots (c,e). Data were analyzed with TumGrowth.
In order to assess the capacity of lurbinectedin to stimulate anticancer immunity in a monotherapeutic approach and to convert tumour cells into a therapeutic vaccine we exposed murine fibrosarcoma cells to the drug in vitro (in conditions previously established to induce a sufficient amplitude of cell death) and then injected the dying cancer cells into syngeneic immunocompetent mice. […] Next we evaluated the effect of lurbinectedin on established cancers growing on immunocompetent or immunodeficient mice. […]
Six- to eight-week-old female wild-type C57BL/6 and nu/nu mice were obtained from Envigo France (Huntingdon, UK) and were kept in the animal facility at the Gustave Roussy Campus Cancer in a specific pathogen-free and temperature-controlled environment with 12 h day, 12 h night cycles and received food and water ad libitum. […] Animals were monitored and tumour growth documented regularly until end-points were reached. […]

## COc1ccc2[nH]c3c(c2c1)CCN[C@]31CS[C@@H]2c3c(OC(C)=O)c(C)c4c(c3[C@H](COC1=O)N1[C@@H]2[C@H]2c3c(cc(C)c(OC)c3O)C[C@@H]([C@@H]1O)N2C)OCO4 [lurbinectedin]
  overall survival: increased
Vs control animals, p<0.0001
  tumour growth: significantly reduced
